From US10988485B2 (Amgen Inc., priority 2018, dated 2021)
Like-named read-outs stand apart in the source and are kept apart here.

Legend:
[1] = target: GDP-bound KRAS protein (aa 1-169), containing both G12C and C118A amino acid substitutions (Homo sapiens, UniProt P01116, C118A/G12C); experiment: Coupled Nucleotide Exchange Assay (SOS-mediated nucleotide exchange, AlphaScreen); assay type: biochemical; conditions: compound pre-incubation either 5 min or 2 hours (not stated per compound); SOS and GTP added, cRAF AlphaScreen read-out
Protocol: (§1) For compounds in Table 6, the following assay conditions were employed:
Coupled Nucleotide Exchange Assay: Purified GDP-bound KRAS protein (aa 1-169), containing both G12C and C118A amino acid substitutions and an N-terminal His-tag, was pre-incubated in assay buffer (25 mM HEPES pH 7.4, 10 mM MgCl2, and 0.01% Triton X-100) with a compound dose-response titration for either 5 min or 2 hours (see Table 15). Following compound pre-incubation, purified SOS protein (aa 564-1049) and GTP (Roche 10106399001) were added to the assay wells and incubated for an additional 30 min (for 5 min compound pre-incubation) or 1 hour (for 2 hour compound pre-incubation). To determine the extent of inhibition of SOS-mediated nucleotide exchange, purified GST-tagged cRAF (aa 1-149), nickel chelate AlphaLISA acceptor beads (PerkinElmer AL108R), and AlphaScreen glutathione donor beads (PerkinElmer 6765302) were added to the assay wells and incubated for 10 minutes. The assay plates were then read on a PerkinElmer EnVision Multilabel Reader, using AlphaScreen® technology, and data were analyzed using a 4-parameter logistic model to calculate IC50 values.

[2] = tested on: Phosphorylation of ERK1/2 in MIA PaCa-2 cells; experiment: Phospho-ERK1/2 MSD Assay; assay type: cell-based; conditions: compound 2 or 4 hours, then 10 ng/mL EGF for 10 min, read-out: p-ERK IC50 (MIA-PaCa-2) (converted)
Protocol: as §1
Phospho-ERK1/2 MSD Assay: MIA PaCa-2 (ATCC® CRL-1420™) cells were cultured in RPMI 1640 Medium (ThermoFisher Scientific 11875093) containing 10% fetal bovine serum (ThermoFisher Scientific 16000044) and 1× penicillin-streptomycin-glutamine (ThermoFisher Scientific 10378016). Sixteen hours prior to compound treatment, MIA PaCa-2 cells were seeded in 96-well cell culture plates at a density of 25,000 cells/well and incubated at 37° C., 5% CO2. A compound dose-response titration was diluted in growth media, added to appropriate wells of a cell culture plate, and then incubated at 37° C., 5% CO2 for 2 or 4 hours. Following compound treatment, cells were stimulated with 10 ng/mL EGF (Roche 11376454001) for 10 min, washed with ice-cold Dulbecco's phosphate-buffered saline, no Ca^2+ or Mg^2+ (ThermoFisher Scientific 14190144), and then lysed in RIPA buffer (50 mM Tris-HCl pH 7.5, 1% Igepal, 0.5% sodium deoxycholate, 150 mM NaCl, and 0.5% sodium dodecyl sulfate) containing protease inhibitors (Roche 4693132001) and phosphatase inhibitors (Roche 4906837001). Phosphorylation of ERK1/2 in compound-treated lysates was assayed using Phospho-ERK1/2 Whole Cell Lysate kits (Meso Scale Discovery K151DWD) according to the manufacturer's protocol. Assay plates were read on a Meso Scale Discovery Sector imager 6000, and data were analyzed using a 4-parameter logistic model to calculate IC50 values.

[3] = Homo sapiens, MIA PaCa-2, MIA PaCa-2 cells

GDP-bound KRAS protein (aa 1-169), containing both G12C and C118A amino acid substitutions, sequence (P01116 1-169 isoform P01116-2 G12C/C118A): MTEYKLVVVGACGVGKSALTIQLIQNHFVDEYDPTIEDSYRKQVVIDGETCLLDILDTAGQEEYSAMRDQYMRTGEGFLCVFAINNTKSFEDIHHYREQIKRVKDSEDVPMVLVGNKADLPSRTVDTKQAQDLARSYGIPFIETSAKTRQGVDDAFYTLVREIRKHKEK

| Compound | IC50 [1] [nM] | IC50 [2, 3] [nM] | IC50 ([2]; MIA PaCa-2 cells) [nM] |
| --- | --- | --- | --- |
| C=CC(=O)N1CCN(C2=NS(=O)(=O)N(c3ccc(CN(C)C)cc3C(C)C)c3nc(-c4ccccc4F)c(Cl)cc32)[C@@H](C)C1 [Example 3-1, 1-((3S)-4-(6-Chloro-1-(4-((dimethylamino)methyl)-2-(2-propanyl)phenyl)-7-(2-fluorophenyl)-2,2-dioxido-1H-pyrido[2,3-c][1,2,6]thiadiazin-4-yl)-3-methyl-1-piperazinyl)-2-propen-1-one] | 150 | 90 | – |
| C=CC(=O)N1C[C@H](C)N(C2=NS(=O)(=O)N(c3ccc(CN(C)C)cc3C3CC3)c3nc(-c4ccccc4F)c(Cl)cc32)C[C@H]1C [Example 6, 1-((2R,5S)-4-(6-Chloro-1-(2-cyclopropyl-4-((dimethylamino)methyl)phenyl)-7-(2-fluorophenyl)-2,2-dioxido-1H-pyrido[2,3-c][1,2,6]thiadiazin-4-yl)-2,5-dimethyl-1-piperazinyl)-2-propen-1-one] | 150 | 150 | – |
| C=CC(=O)N1C[C@H](C)N(C2=NS(=O)(=O)N(c3c(N)ncnc3C(C)C)c3nc(-c4ccccc4F)c(Cl)cc32)C[C@H]1C [Example 9] | 250 | – | 150 |

The remaining lines, values ahead:

| IC50 [1] [nM] | IC50 [2, 3] [nM] | IC50 ([2]; MIA PaCa-2 cells) [nM] | Compound |
| --- | --- | --- | --- |
| 190 | – | 270 | C=CC(=O)N1C[C@H](C)N(C2=NS(=O)(=O)N(c3c(C)cc(CN(C)C)cc3C(C)C)c3nc(-c4c(N)cccc4F)c(Cl)cc32)C[C@H]1C [Example 8, 1-((2R,5S)-4-(7-(2Amino-6-fluorophenyl)-6-chloro-1-(4-((dimethylamino)methyl)-2-methyl-6-(2-propanyl)phenyl)-2,2-dioxido-1H-pyrido[2,3-c][1,2,6]thiadiazin-4-yl)-2,5-dimethyl-1-piperazinyl)-2-propen-1-one] |
| 80 | – | 80 | C=CC(=O)N1C[C@H](C)N(C2=NS(=O)(=O)N(c3c(C)cc(CN(C)C)cc3C(C)C)c3nc(-c4c(N)cccc4F)c(Cl)cc32)C[C@H]1C [Example 8-1, 1-((2R,5S)-4-(7-(2-amino-6-fluorophenyl)-6-chloro-1-(4-((dimethylamino)methyl)-2-methyl-6-(2-propanyl)phenyl)-2,2-dioxido-1H-pyrido[2,3-c][1,2,6]thiadiazin-4-yl)-2,5-dimethyl-1-piperazinyl)-2-propen-1-one] |
